Experimental data as given in PubChem BioAssay (NCI).
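Exposure lasted 48 hours, with cells grown in 96-well plates and compounds tested at five concentrations. Definition used: TGI = concentration required for complete inhibition of growth.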

Experiments:
Test in all cases: DTP human tumour cell line panel, 48 h
UACC-62 melanoma = system: UACC-62 melanoma
MOLT-4 leukemia = system: MOLT-4 leukemia
M14 melanoma = system: M14 melanoma
SK-OV-3 ovarian = system: SK-OV-3 ovarian
MDA-N = system: MDA-N
SF-539 CNS = system: SF-539 CNS
COLO 205 colon = system: COLO 205 colon
U251 CNS = system: U251 CNS
SF-268 CNS = system: SF-268 CNS
UO-31 renal = system: UO-31 renal
IGROV1 ovarian = system: IGROV1 ovarian
NCI-H460 lung = system: NCI-H460 lung
A549 NSCLC = system: A549 NSCLC
HOP-62 NSCLC = system: HOP-62 NSCLC
KM12 colon = system: KM12 colon
ACHN renal = system: ACHN renal
HT29 colon = system: HT29 colon
SK-MEL-5 melanoma = system: SK-MEL-5 melanoma
SR leukemia = system: SR leukemia
OVCAR-3 ovarian = system: OVCAR-3 ovarian
T-47D breast = system: T-47D breast
LOX IMVI melanoma = system: LOX IMVI melanoma
SK-MEL-2 melanoma = system: SK-MEL-2 melanoma
NCI-H226 lung = system: NCI-H226 lung
NCI-H23 lung = system: NCI-H23 lung
DU-145 prostate = system: DU-145 prostate
MALME-3M melanoma = system: MALME-3M melanoma
HCT-116 colon = system: HCT-116 colon
SNB-75 CNS = system: SNB-75 CNS
HL-60(TB) leukemia = system: HL-60(TB) leukemia
OVCAR-4 ovarian = system: OVCAR-4 ovarian
HCT-15 colon = system: HCT-15 colon
CAKI-1 renal = system: CAKI-1 renal
CCRF-CEM leukemia = system: CCRF-CEM leukemia
NCI/ADR-RES ovarian = system: NCI/ADR-RES ovarian
SN12C renal = system: SN12C renal
EKVX NSCLC = system: EKVX NSCLC
TK-10 renal = system: TK-10 renal
MDA-MB-435 = system: MDA-MB-435
786-0 renal = system: 786-0 renal
NCI-H522 lung = system: NCI-H522 lung
A498 renal = system: A498 renal
MDA-MB-231 breast = system: MDA-MB-231 breast
SW-620 colon = system: SW-620 colon
BT-549 breast = system: BT-549 breast
K-562 leukemia = system: K-562 leukemia
HOP-92 NSCLC = system: HOP-92 NSCLC
OVCAR-8 ovarian = system: OVCAR-8 ovarian
HS 578T breast = system: HS 578T breast
SK-MEL-28 melanoma = system: SK-MEL-28 melanoma
RXF 393 renal = system: RXF 393 renal
OVCAR-5 ovarian = system: OVCAR-5 ovarian
MCF7 breast = system: MCF7 breast
UACC-257 melanoma = system: UACC-257 melanoma
RPMI-8226 leukemia = system: RPMI-8226 leukemia
SF-295 CNS = system: SF-295 CNS
HCC-2998 colon = system: HCC-2998 colon
PC-3 prostate = system: PC-3 prostate
SNB-19 CNS = system: SNB-19 CNS

In the case of `Brc1sc(Br)c2c1[C@H](Br)C[C@@H]2Br`, the TGI (UACC-62 melanoma) is reported as 88 µM, the TGI (MOLT-4 leukemia) is reported as 95.5 µM and the TGI (M14 melanoma) is reported as > 100 µM. The TGI (SK-OV-3 ovarian) was > 100 µM, the TGI (MDA-N) was > 100 µM and the TGI (SF-539 CNS) was 44.5 µM. For the same compound, the TGI (COLO 205 colon) was > 100 µM, the TGI (U251 CNS) was > 100 µM and the TGI (SF-268 CNS) was 53.4 µM. For the same compound, the TGI (UO-31 renal) was 45.8 µM, the TGI (IGROV1 ovarian) was > 100 µM and the TGI (NCI-H460 lung) was > 100 µM. For the same compound, the TGI (A549 NSCLC) was > 100 µM, the TGI (HOP-62 NSCLC) was > 100 µM and the TGI (KM12 colon) was > 100 µM. The TGI (ACHN renal) was 97.9 µM, the TGI (HT29 colon) was > 100 µM and the TGI (SK-MEL-5 melanoma) was > 100 µM. The TGI (SR leukemia) was 97.7 µM, the TGI (OVCAR-3 ovarian) was > 100 µM and the TGI (T-47D breast) was > 100 µM. The TGI (LOX IMVI melanoma) was 43.8 µM, the TGI (SK-MEL-2 melanoma) was 56 µM and the TGI (NCI-H226 lung) was 59.2 µM. It also gave a TGI (NCI-H23 lung) of 51.1 µM, a TGI (DU-145 prostate) of 61.2 µM and a TGI (MALME-3M melanoma) of 63.2 µM. The TGI (HCT-116 colon) was > 100 µM, the TGI (SNB-75 CNS) was 85.3 µM and the TGI (HL-60(TB) leukemia) was 75.2 µM. For the same compound, the TGI (OVCAR-4 ovarian) was 44.9 µM, the TGI (HCT-15 colon) was > 100 µM and the TGI (CAKI-1 renal) was > 100 µM. The TGI (CCRF-CEM leukemia) was > 100 µM, the TGI (NCI/ADR-RES ovarian) was 63.9 µM and the TGI (SN12C renal) was > 100 µM. The TGI (EKVX NSCLC) was > 100 µM, the TGI (TK-10 renal) was > 100 µM and the TGI (MDA-MB-435) was > 100 µM. The TGI (786-0 renal) was > 100 µM, the TGI (NCI-H522 lung) was 34.2 µM and the TGI (A498 renal) was > 100 µM. The TGI (MDA-MB-231 breast) was > 100 µM, the TGI (SW-620 colon) was > 100 µM and the TGI (BT-549 breast) was 79 µM. For the same compound, the TGI (K-562 leukemia) was > 100 µM, the TGI (HOP-92 NSCLC) was 61.5 µM and the TGI (OVCAR-8 ovarian) was 57.2 µM. For the same compound, the TGI (HS 578T breast) was 77.1 µM, the TGI (SK-MEL-28 melanoma) was > 100 µM and the TGI (RXF 393 renal) was 10.4 µM. For the same compound, the TGI (OVCAR-5 ovarian) was > 100 µM, the TGI (MCF7 breast) was 98.5 µM and the TGI (UACC-257 melanoma) was > 100 µM.

With `COc1ccc(N2C(=O)C3c4[nH]c5ccc(OC)cc5c4C4CCC(C(C)C)CC4C3C2=O)cc1` (stereo not given) the TGI (UACC-62 melanoma) was > 31.6 µM, the TGI (MOLT-4 leukemia) was > 93.5 µM and the TGI (M14 melanoma) was > 100 µM. The TGI (SK-OV-3 ovarian) was > 100 µM, the TGI (RPMI-8226 leukemia) was > 100 µM and the TGI (MDA-N) was > 100 µM. The TGI (SF-295 CNS) was > 100 µM, the TGI (COLO 205 colon) was > 100 µM and the TGI (U251 CNS) was > 100 µM. For the same compound, the TGI (SF-268 CNS) was > 74.5 µM, the TGI (UO-31 renal) was > 100 µM and the TGI (IGROV1 ovarian) was > 100 µM. The TGI (NCI-H460 lung) was > 100 µM, the TGI (A549 NSCLC) was > 100 µM and the TGI (HOP-62 NSCLC) was 54.8 µM. The TGI (KM12 colon) was > 100 µM, the TGI (ACHN renal) was > 100 µM and the TGI (HT29 colon) was > 100 µM. The TGI (SK-MEL-5 melanoma) was > 100 µM, the TGI (OVCAR-3 ovarian) was > 100 µM and the TGI (T-47D breast) was > 100 µM. The TGI (HCC-2998 colon) was > 100 µM, the TGI (LOX IMVI melanoma) was > 100 µM and the TGI (PC-3 prostate) was > 100 µM. The TGI (SK-MEL-2 melanoma) was > 100 µM, the TGI (SNB-19 CNS) was 99.4 µM and the TGI (NCI-H226 lung) was > 100 µM. The TGI (NCI-H23 lung) was > 100 µM, the TGI (DU-145 prostate) was > 100 µM and the TGI (HCT-116 colon) was > 100 µM. The TGI (SNB-75 CNS) was > 65.5 µM, the TGI (HL-60(TB) leukemia) was > 100 µM and the TGI (OVCAR-4 ovarian) was > 100 µM. For the same compound, the TGI (HCT-15 colon) was > 100 µM, the TGI (CAKI-1 renal) was > 100 µM and the TGI (CCRF-CEM leukemia) was > 30.3 µM. For the same compound, the TGI (NCI/ADR-RES ovarian) was > 100 µM, the TGI (SN12C renal) was > 100 µM and the TGI (EKVX NSCLC) was > 100 µM. The TGI (TK-10 renal) was > 100 µM, the TGI (MDA-MB-435) was > 100 µM and the TGI (786-0 renal) was > 55.2 µM. For the same compound, the TGI (NCI-H522 lung) was > 100 µM, the TGI (A498 renal) was > 92.5 µM and the TGI (MDA-MB-231 breast) was > 100 µM. The TGI (SW-620 colon) was > 100 µM, the TGI (BT-549 breast) was > 100 µM and the TGI (K-562 leukemia) was > 31.6 µM. The TGI (HOP-92 NSCLC) was > 100 µM, the TGI (OVCAR-8 ovarian) was > 100 µM and the TGI (HS 578T breast) was > 84.4 µM. For the same compound, the TGI (SK-MEL-28 melanoma) was > 100 µM, the TGI (RXF 393 renal) was > 100 µM and the TGI (OVCAR-5 ovarian) was > 100 µM. The TGI (MCF7 breast) was > 100 µM and the TGI (UACC-257 melanoma) was > 100 µM.
